Source: publication PMC7591920, “A protein tertiary structure mimetic modulator of the Hippo signalling pathway” (Nature Communications, 2020)
One block for each compound: values may come before it. Bridge positions count the residues as written; N and C are the ends. Square brackets hold non-standard residues; d marks the D form. Peptide text beside a SMILES is read from it. AEEA = NCCOCCOCC(=O)O

Experiments:
hTEAD1–VGL4 complex = biological target: T1, hTEAD1–VGL4 complex (Homo sapiens, UniProt P28347); test: Competitive FP, displacement of labelled VGL4(203–256) from hTEAD1; type: binding
T1 construct: CDNA of hTEAD1(209–426) fused with an N-terminal GST tag; GST (N); 6x His-tag (N); 3C protease cleavage site (N); made in house; host or cells: Escherichia coli BL21 DE3 RIL(K+); tracer peptide synthetic
Experimental: Next, the ability of the peptides in our panel to inhibit the TEAD–VGL4 interaction was investigated. For this purpose, a competition pull-down experiment was performed using biotinylated VGL4(203–256) (b-1) as the bait for GST-tagged hTEAD1. b-1 was immobilized on streptavidin magnetic beads and hTEAD1 pull-down was detected using gel electrophoresis (Fig. 3d). […] To evaluate how inhibitor binding discriminates between these two binding partners, we performed a competitive binding assay based on FP.
Supplementary Figure 15│ Binding studies of hTEAD1 by fluorescence polarization. Dissociation constants were measured […]
The fluorescent cofactor (10 nM) are directly titrated with hTEAD1. After 1 hour of incubation, fluorescence polarization was measured, and a non-linear fitting was applied to the curves to determine the […]
In the competitive binding assay, first a complex with the fluorescent cofactor (10 nM) and hTEAD1 (100 nM) was formed and after 1 hour of incubation, the unlabelled peptide was titrated. After 1 hour of incubation, fluorescence polarization was measured, and a non-linear fitting was applied to the curves to determine the half maximal inhibitory concentration. (c) Competition assay […]
Mean ± SEM of triplicates were plotted for all data. Source data are provided as a Source Data file.
(1 picture or pasted object on this page, not shown here)

TEAD target genes = test: qPCR analysis of TEAD target genes in cardiomyocytes from human ES cell line (H7); type: cell-based; details: c = 30 µM, t = 18 h
YAP = YAP localization assay in juvenile rat cardiomyocytes; type: cell-based; details: for YAP ratio (nucleus/cytoplasm), Mean: 4 h, primary juvenile rat cardiomyocytes, DMSO mean 2.99; for YAP ratio in cardiomyocytes (nucleus/cytoplasm): fluorescence immunocytochemistry, 8 Hours, mean of n = 3
Experimental: We analysed the YAP sub-cellular distribution in cardiomyocytes by means of fluorescence intensity after immunocytochemistry. After 3 days in culture, the cardiac cells were treated and fixed 4, 8, and 24 h after treatment. […] Secondary antibodies were used to detect the primary antibodies (goat anti-mouse Alexa Fluor 568, A-11004, dilution 1:1000 and goat anti-rabbit AlexaFluor 488, A-11008, dilution 1:1000, both from Thermo Fisher Scientific) and nuclei were counterstained with DAPI (2-(4-amidinophenyl)-1H-indole-6-carboxamidine, dilution 1:1000, Roth). The samples were then imaged and analysed on an ImageXpress XL automated microscope (Molecular Devices). […] Data are depicted as means ± SEM.

YAP–TEAD interaction = test: Proximity ligation assay (PLA) in RKO cells; type: cell-based; details: 24 h incubation, c = 30 µM
Experimental: Ca. 5000 RKO cells were seeded per well in black 96-well plates with glass bottom (#5241-20, MoBiTec) and treated with the peptides or DMSO as vehicle control. After 24 h, the cells were fixed for 10 min using 4% paraformaldehyde (#UN2209, AppliChem) in PBS prior to permeabilization with 0.1% Triton X-100 (#39795.02, Serva) in PBS for 10 min. […] The cells were treated with the corresponding PLA probes (donkey anti-rabbit PLUS, #DUO92002, dilution 1:5; donkey anti-mouse MINUS, #DUO92004, dilution 1:5, Sigma-Aldrich) and with the Duolink In Situ Detection Orange Kit (#DUO92007, Sigma-Aldrich) for ligation and amplification according to the manufacturer's instructions. Finally, the cells were treated with 1 μg mL^-1 DAPI (#D9542, Sigma-Aldrich) to stain nuclei for further microscopy analysis. Images were acquired using a Zeiss Observer Z1 microscope with an 63× oil objective. Picture data were analysed by the ImageJ “analyze particles” macro to count PLA spots per cell. Ten pictures were counted for each condition per experiment. Statistical analysis was performed using Student's paired t test.

[1] = Peptide stability in cell culture media with 10% FBS; details: 30 µM peptide, MEM + 10% FBS, 37 °C, HPLC/MS, duplicates
Experimental: A total of 30 µM of the peptide was incubated in MEM media supplemented with 10% FBS at 37 °C. At the indicated time point, 25 µL of the sample was withdrawn, mixed with an equal volume of the internal standard solution (6 µM Fmoc-Arg(Pbf)-OH), kept on ice for 15 min followed by centrifugation (16×g) at 4 °C for 5 min. The supernatant was analysed with LC-MS (UltiMate 3000 UHPLC Systems) using C18 reverse phase column (Nucleodur, 1.8 µm C18 gravity, 2 mm) and Thermo Orbitrap Velos Pro ETD. The peptide absorbance (λ = 280 nm) or the mass spectrometry peak intensity relative to that of the internal standard peak intensity was graphed. The stability experiments were performed in duplicates.

RKO cells = test: Total drug content in RKO cells by UPLC-MS; details: for Total drug content, Measured Concentration: RIPA total lysis, diluted lysate
Experimental: Peptides were incubated in RKO cells (ATCC, #CRL-2577) as follows: Experiment 1: RKO cells were incubated in 25 µM compound for 90 min and 24 h. Experiment 2: RKO cells were incubated in 25 µM for 30 min or 72 h. Following peptide incubation, the cells were washed twice with PBS, trypsinized and pelleted. The pellets were lysed in RIPA buffer (Perkin Elmer) for total lysis, or CelLytic NuCLEAR Extraction Kit (SIGMA) for subcellular fractionation. Total protein quantification BCA (Pierce) was performed prior to MS analysis to normalize sample data. Total and fractionated cell lysates were analysed by quantitative UPLC-MS utilizing a Waters Xevo TQ-XS (WBA0259) and an Acquity UPLC system from Waters consisting of Sample Manager (M16UFL953M), Acquity PDA (F17UPD457A), Column Oven (E17CMP703G) and Binary Solvent Manager (E17BUR621G). […] Chromatograms of the samples were treated similarly, and by linear regression (1/x) an in-cell concentration was established in the re-suspended cell lysate using the Waters MassLynx TargetLynx^TM product.

[2] = Circular dichroism, calculated helicity; type: physicochemical; details: 10 mM sodium phosphate pH 7.4, 75 to 10 µM peptide, CDNN software PEPFIT mode, unbound peptide
Experimental: The spectra were obtained using a Jasco J-715 and a cuvette 0.1 mm. Represented CD spectra are an average of five measurements done between λ = 190 and 300 nm with a continuous scan mode, 50 nm min^−1 scan speed and data point every 1 nm. The α-helicity was calculated using CDNN software using the PEPFIT mode[42].

[3] = 25 µM compound, 24 hours, UPLC-MS, n = 2
[4] = 25 µM compound, 24 hours, total lysis, UPLC-MS, n = 2
[5] = total drug content, 25 µM compound, 90 minutes, mean of 2 replicates

T1 sequence (P28347 209-426, one chain of several): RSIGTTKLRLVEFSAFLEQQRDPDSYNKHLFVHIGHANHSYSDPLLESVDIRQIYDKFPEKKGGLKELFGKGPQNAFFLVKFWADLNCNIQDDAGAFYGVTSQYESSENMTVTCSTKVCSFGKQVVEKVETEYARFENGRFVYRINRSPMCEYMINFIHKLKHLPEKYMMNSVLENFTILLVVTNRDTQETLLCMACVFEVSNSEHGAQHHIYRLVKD

Compound: CC[C@H](C)[C@@H]1NC(=O)[C@H](CCC(N)=O)NC(=O)[C@H](CC(C)C)NC(=O)[C@H](Cc2c[nH]c3ccccc23)NC(=O)[C@H]([C@@H](C)O)NC(=O)[C@H](CC(=O)O)NC(=O)CNC(=O)[C@H](CC(C)C)NC(=O)[C@H](C)NC(=O)[C@H](CCCCN)NC(=O)[C@H](C)NC(=O)[C@H](Cc2ccccc2)NC(=O)[C@H](Cc2c[nH]cn2)NC(=O)[C@H](CC(=O)O)NC(=O)[C@@H](NC(=O)[C@@H](NC(=O)[C@H](CO)NC(=O)COCCOCCNC(=O)[C@H](CCC(N)=O)NC(=O)[C@@H]2CCCN2C(=O)[C@H](CCCNC(=N)N)NC(=O)[C@H](CCCNC(=N)N)NC(=O)[C@H](CCCNC(=N)N)NC(=O)[C@H](CCC(N)=O)NC(=O)[C@H](CCCNC(=N)N)NC(=O)[C@H](CCCNC(=N)N)NC(=O)[C@H](CCCCN)NC(=O)[C@H](CCCCN)NC(=O)[C@H](CCCNC(=N)N)NC(=O)CNC(C)=O)C(C)C)CCC(=O)NCCCC[C@@H](C(=O)N[C@@H](C)C(=O)N[C@@H](C)C(N)=O)NC1=O [compound 7] (Ac-GRKKRRQRRRPQ[AEEA]SVEDHFAKALGDTWLQIKAA-NH2; lactam 16-31)
required concentration for VGL4 competition in the homogeneous FP-based competition assay (hTEAD1–VGL4 complex; hTEAD1): ca. 10 µM
IC50 (hTEAD1–VGL4 complex; labelled VGL4(203–256) 10 nM + hTEAD1 100 nM pre-incubated 1 h, unlabelled peptide titrated, 1 h, triplicates, read-out: IC50, inhibition of hTEAD1–VGL4 complex): 5.46 ± 0.253 µM
Effect on expression of TEAD target genes (TEAD target genes; qPCR): increased levels of the cell cycle genes CYR61, CTGF, ANKRD1, and SEPINE1
RQ (relative target quantity) (TEAD target genes; target gene ANKRD1, RT-qPCR): 4.731
RQ (relative target quantity) (TEAD target genes; target gene CTGF, RT-qPCR): 1.987
RQ (relative target quantity) (TEAD target genes; target gene CYR61, RT-qPCR): 3.964
RQ (relative target quantity) (TEAD target genes; target gene SERPINE1, RT-qPCR): 3.52
YAP ratio (nucleus/cytoplasm), Mean (YAP; 5 µM): 3.475
YAP ratio (nucleus/cytoplasm), Mean (YAP; 5 µM, listed as peptide 7): 3.48
YAP ratio (nucleus/cytoplasm), Mean (YAP; 10 µM): 5.895
YAP ratio (nucleus/cytoplasm), Mean (YAP; 10 µM, listed as peptide 7): 5.89
YAP ratio in cardiomyocytes (nucleus/cytoplasm) (YAP; 5 µM of 7): 2.607
YAP ratio in cardiomyocytes (nucleus/cytoplasm) (YAP; 10 µM of 7): 3.272
Effect on sub-cellular distribution of YAP (YAP; juvenile rat cardiomyocytes, 4 h treatment, vs vehicle control): increased nuclear accumulation of YAP
Effect on YAP–TEAD complexes (PLA) (YAP–TEAD interaction): an increase in YAP–TEAD complexes
peptide intact after 24 h [1]: about 80%
Total drug content, Measured Concentration (RKO cells; 25 µM compound, 90 minutes, UPLC-MS, n = 2): 122.09 ± 7.277 nM
Total drug content (RKO cells; 25 µM compound, 90 minutes, total lysis, UPLC-MS, n = 2): 0.1831 ± 0.01091 nmol
Total drug content, Measured Concentration (RKO cells; [3]): 91.646 ± 61.816 nM
Total drug content (RKO cells; [4]): 0.1375 ± 0.09272 nmol
loss of total concentration between 90 min and 24 h incubation (RKO cells; 25 µM, authors' response in peer review file): 30%
Measured Conc (RKO cells; total drug content, 25 µM compound, 90 minutes, UPLC-MS, dilution factor 10, replicate 1): 114.813 nM
Measured Conc (RKO cells; total drug content, 25 µM compound, 90 minutes, UPLC-MS, dilution factor 10, replicate 2): 129.367 nM
pMol/mg of protein, Mean (RKO cells; [5]): 183.0 pMol/mg of protein
Measured Conc (RKO cells; total drug content, 25 µM compound, 24 hours, UPLC-MS, dilution factor 10, replicate 1): 153.462 nM
Measured Conc (RKO cells; total drug content, 25 µM compound, 24 hours, UPLC-MS, dilution factor 10, replicate 2): 29.83 nM
pMol/mg, Mean (RKO cells; total drug content, 25 µM compound, 24 hours, mean of 2 replicates): 127.1 pMol/mg

Total drug content, Measured Concentration (RKO cells; [3]): < LLOQ
Total drug content, nMol (RKO cells; [4]): < LLOQ
Total drug content, pMol.mg-1 (RKO cells; 25 µM compound, 24 hours, total lysis, UPLC-MS, normalised to BCA protein, n = 2): < LLOQ
pMol/mg of protein, Mean (RKO cells; [5]): 424.4 pMol/mg of protein
Helicity (CD) [2]: 23%
Compound: CC[C@H](C)[C@@H]1NC(=O)[C@H](CCC(N)=O)NC(=O)[C@H](CC(C)C)NC(=O)[C@H](Cc2c[nH]c3ccccc23)NC(=O)[C@H]([C@@H](C)O)NC(=O)[C@H](CC(=O)O)NC(=O)CNC(=O)[C@H](CC(C)C)NC(=O)[C@H](C)NC(=O)[C@H](CCCCN)NC(=O)[C@H](C)NC(=O)[C@H](Cc2ccccc2)NC(=O)[C@H](Cc2c[nH]cn2)NC(=O)[C@H](CC(=O)O)NC(=O)[C@@H](NC(=O)[C@@H](NC(=O)[C@H](CO)NC(C)=O)C(C)C)CCC(=O)NCCCC[C@@H](C(=O)N[C@@H](C)C(=O)N[C@@H](C)C(N)=O)NC1=O [4E] (Ac-SVEDHFAKALGDTWLQIKAA-NH2; lactam 3-18)
Effect on YAP–TEAD complexes (PLA) (YAP–TEAD interaction): only shows a small change in PLA events
